Patent publication US12410171B2, “Tropomyosin receptor kinase (TRK) degradation compounds and methods of use” (Cullgen (Shanghai), Inc., priority 2020, dated 2025)

Each molecule was assayed against T1, TPM3-TRKA fusion protein (Homo sapiens, UniProt P04629) (assay: TPM3-TRKA fusion protein levels in KM12 cells (Western blot)). Settings: 16 h; TPM3-TRKA degradation in KM12 cells at 10 nM compound, category of percentage degradation; read-out: Degradation (at 10 nM).
T1 construct: The resulted chimeric proteins always retain the kinase domain of TRK proteins; TPM3 (fusion partner, N-terminal part of tropomyosin alpha-3, P06753); endogenous in cells; host or cells: KM12 colon cancer cells; the other entry of the earlier key: TPM3 (P06753, Tropomyosin alpha-3 chain)
T1 sequence (P04629 with tags, fused parts or gaps): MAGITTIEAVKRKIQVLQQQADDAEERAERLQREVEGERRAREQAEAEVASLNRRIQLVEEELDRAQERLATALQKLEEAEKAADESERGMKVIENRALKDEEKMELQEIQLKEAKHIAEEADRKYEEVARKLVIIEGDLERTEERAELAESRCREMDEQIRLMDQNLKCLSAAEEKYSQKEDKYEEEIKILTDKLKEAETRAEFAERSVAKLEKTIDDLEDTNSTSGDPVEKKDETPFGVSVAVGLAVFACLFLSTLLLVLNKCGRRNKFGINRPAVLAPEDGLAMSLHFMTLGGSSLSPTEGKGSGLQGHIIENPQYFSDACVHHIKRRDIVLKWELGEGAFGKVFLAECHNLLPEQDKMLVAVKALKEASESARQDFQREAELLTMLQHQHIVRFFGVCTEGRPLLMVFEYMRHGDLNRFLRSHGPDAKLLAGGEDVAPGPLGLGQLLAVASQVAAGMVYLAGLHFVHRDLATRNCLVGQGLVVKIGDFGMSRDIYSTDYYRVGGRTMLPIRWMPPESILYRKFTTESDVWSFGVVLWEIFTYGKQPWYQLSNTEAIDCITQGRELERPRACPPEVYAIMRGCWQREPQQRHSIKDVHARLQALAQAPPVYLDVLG
Type: cell-based
Experimental: KM12 cells were treated with DMSO or indicated compounds at 100 nM for 16 hours.
KM12 cells were treated with DMSO or indicated compounds at 0. 1 nM, 1 nM or 10 nM for 16 hours.
KM12 cells were treated with DMSO or indicated compounds at various concentrations for 16 hours.
KM12 cells were treated with DMSO or indicated compounds at various concentrations for 4 hours.
KM12 cells (a cancer model comprising a colon cancer cell line) were treated with DMSO or indicated compounds at various concentrations for 4 hours.
KM12 cells were treated with heterobifunctional compounds or their corresponding control compounds at 10 nM or 100 nM for 16 hours.
KM12 cells were treated with heterobifunctional compounds or their corresponding control compounds at 0.4-30 nM for 8-16 hours. […] Cells were authenticated using the short tandem repeat (STR) assays. […] Stable cell lines were established by lentivirus transduction, selected and maintained in medium containing 1 μg/mL puromycin (Beyotime Biotechnology).
Cultured cells were washed with cold PBS once and lysed in cold RIPA buffer supplemented with protease inhibitors and phosphatase inhibitors (Beyotime Biotechnology). The solutions were then incubated at 4° C. for 30 minutes with gentle agitation to fully lyse cells. For tumor tissues, tumors were cut into small pieces, milled with cold RIPA buffer using a mechanical homogenizer and lysed for 1 hour at 4° C. Cell lysates were centrifuged at 13,000 rpm for 10 minutes at 4° C. and pellets were discarded. Total protein concentrations in the lysates were determined by BCA assays (Beyotime Biotechnology). Cell lysates were mixed with Laemmli loading buffer to 1× and heated at 99° C. for 5 min. Proteins were resolved on SDS-PAGE and visualized by chemiluminescence. Images were taken by a ChemiDoc MP Imaging system (Bio-Rad). Protein bands were quantitated using the software provided by Bio-Rad.

Compared with `O=C1CCC(N2C(=O)c3cccc(NCCCCCCC(=O)N4CCN(c5cccc(-c6cnc7ccc(N8CCC[C@@H]8c8cccc(F)c8)nn67)n5)CC4)c3C2=O)C(=O)N1` (stereo partly drawn) [CPD-009, 2-(2,6-Dioxopiperidin-3-yl)-4-((7-(4-(6-(6-((R)-2-(3-fluorophenyl)pyrrolidin-1-yl)imidazo[1,2-b]pyridazin-3-yl)pyridin-2-yl)piperazin-1-yl)-7-oxoheptyl)amino) isoindoline-1,3-dione], `O=C1CCC(N2C(=O)c3cccc(NCCCCCCCC(=O)N4CCN(c5cccc(-c6cnc7ccc(N8CCC[C@@H]8c8cccc(F)c8)nn67)n5)CC4)c3C2=O)C(=O)N1` (stereo partly drawn) [CPD-024, 2-(2,6-Dioxopiperidin-3-yl)-4-((8-(4-(6-(6-((R)-2-(3-fluorophenyl)pyrrolidin-1-yl)imidazo[1,2-b]pyridazin-3-yl)pyridin-2-yl)piperazin-1-yl)-8-oxooctyl)amino) isoindoline-1,3-dione] is higher in percent degradation of TPM3-TRKA protein at 0.01 µM: 50 to 80% for the first, greater than 80% for the second.

`O=C1CCC(N2C(=O)c3cccc(NCCCC(=O)N4CCN(c5cccc(-c6cnc7ccc(N8CCC[C@@H]8c8cccc(F)c8)nn67)n5)CC4)c3C2=O)C(=O)N1` (stereo partly drawn) [CPD-013, 2-(2,6-Dioxopiperidin-3-yl)-4-((4-(4-(6-(6-((R)-2-(3-fluorophenyl)pyrrolidin-1-yl)imidazo[1,2-b]pyridazin-3-yl)pyridin-2-yl)piperazin-1-yl)-4-oxobutyl)amino) isoindoline-1,3-dione] and `O=C1CCC(N2C(=O)c3cccc(NCCCCC(=O)N4CCN(c5cccc(-c6cnc7ccc(N8CCC[C@@H]8c8cccc(F)c8)nn67)n5)CC4)c3C2=O)C(=O)N1` (stereo partly drawn) [CPD-014, 2-(2,6-Dioxopiperidin-3-yl)-4-((5-(4-(6-(6-((R)-2-(3-fluorophenyl)pyrrolidin-1-yl)imidazo[1,2-b]pyridazin-3-yl)pyridin-2-yl)piperazin-1-yl)-5-oxopentyl)amino) isoindoline-1,3-dione] cannot be ordered by percent degradation of TPM3-TRKA protein at 0.01 µM: greater than 80% for the first, greater than 80% for the second.

First: O=C1CCC(N2C(=O)c3cccc(NCCCCCC(=O)N4CCN(c5cccc(-c6cnc7ccc(N8CCC[C@@H]8c8cccc(F)c8)nn67)n5)CC4)c3C2=O)C(=O)N1 (stereo partly drawn) [CPD-015, 2-(2,6-Dioxopiperidin-3-yl)-4-((6-(4-(6-(6-((R)-2-(3-fluorophenyl)pyrrolidin-1-yl)imidazo[1,2-b]pyridazin-3-yl)pyridin-2˜yl)piperazin-1-yl)-6-oxohexyl)amino) isoindoline-1,3-dione]
Second: O=C1CCC(N2C(=O)c3cccc(NCCC(=O)N4CCN(c5cccc(-c6cnc7ccc(N8CCC[C@@H]8c8cccc(F)c8)nn67)n5)CC4)c3C2=O)C(=O)N1 (stereo partly drawn) [CPD-026, 2-(2,6-Dioxopiperidin-3-yl)-4-((3-(4-(6-(6-((R)-2-(3-fluorophenyl)pyrrolidin-1-yl)imidazo[1,2-b]pyridazin-3-yl)pyridin-2-yl)piperazin-1-yl)-3-oxopropyl)amino) isoindoline-1,3-dione]
The percent degradation of TPM3-TRKA protein at 0.01 µM of the first is higher: greater than 80% for the first, 50 to 80% for the second.

First: Cc1ncsc1-c1ccc(CNC(=O)[C@@H]2C[C@@H](O)CN2C(=O)[C@@H](NC(=O)CCCCCCCCC(=O)N2CCN(c3cccc(-c4cnc5ccc(N6CCC[C@@H]6c6cccc(F)c6)nn45)n3)CC2)C(C)(C)C)cc1 [CPD-017, (28,4R)-1-((S)-2-(10-(4-(6-(6-((R)-2-(3-Fluorophenyl)pyrrolidin-1-yl)imidazo[1,2-b]pyridazin-3-yl)pyridin-2-yl)piperazin-1-yl)-10-oxodecanamido)-3,3-dimethylbutanoyl)-4-hydroxy-N-(4-(4-methylthiazol-S-yl)benzyl)pyrrolidine-2-carboxamide]
Second: Cc1ncsc1-c1ccc(CNC(=O)[C@@H]2C[C@@H](O)CN2C(=O)[C@@H](NC(=O)CCCCCCCCCC(=O)N2CCN(c3cccc(-c4cnc5ccc(N6CCC[C@@H]6c6cccc(F)c6)nn45)n3)CC2)C(C)(C)C)cc1 [CPD-022, (25,4R)-1-((S)-2-(11-(4-(6-(6-((R)-2-(3-Fluorophenyl)pyrrolidin-1-yl)imidazo[1,2-b]pyridazin-3-yl)pyridin-2-yl)piperazin-1-yl)-11-oxoundecanamido)-3,3-dimethylbutanoyl)-4-hydroxy-N-(4-(4-methylthiazol-5-yl)benzyl)pyrrolidine-2-carboxamide]
The percent degradation of TPM3-TRKA protein at 0.01 µM of the first is lower: less than 50% for the first, 50 to 80% for the second.

`O=C1CCC(N2C(=O)c3cccc(NCCOCCOCCOCCOCCC(=O)N4CCN(c5cccc(-c6cnc7ccc(N8CCC[C@@H]8c8cccc(F)c8)nn67)n5)CC4)c3C2=O)C(=O)N1` (stereo partly drawn) [CPD-021, 2-(2,6-Dioxopiperidin-3-yl)-4-((15-(4-(6-(6-((R)-2-(3-fluorophenyl)pyrrolidin-1-yl)imidazo[1,2-b]pyridazin-3-yl)pyridin-2-yl)piperazin-1-yl)-15-oxo-3,6,9,12-tetraoxapentadecyl)amino) isoindoline-1,3-dione] and `O=C1CCC(N2C(=O)c3cccc(NCCOCCOCCOCCOCCOCCC(=O)N4CCN(c5cccc(-c6cnc7ccc(N8CCC[C@@H]8c8cccc(F)c8)nn67)n5)CC4)c3C2=O)C(=O)N1` (stereo partly drawn) [CPD-025, 2-(2,6-Dioxopiperidin-3-yl)-4-((18-(4-(6-(6-((R)-2-(3-fluorophenyl)pyrrolidin-1-yl)imidazo[1,2-b]pyridazin-3-yl)pyridin-2-yl)piperazin-1-yl)-18-oxo-3,6,9,12,15-pentaoxaoctadecyl)amino) isoindoline-1,3-dione] cannot be ordered by percent degradation of TPM3-TRKA protein at 0.01 µM: greater than 80% for the first, greater than 80% for the second.

`O=C1CCC(N2C(=O)c3cccc(NCC(=O)N4CCN(c5cccc(-c6cnc7ccc(N8CCC[C@@H]8c8cccc(F)c8)nn67)n5)CC4)c3C2=O)C(=O)N1` (stereo partly drawn) [CPD-023, 2-(2,6-Dioxopiperidin-3-yl)-4-((2˜ (4-(6-(6-((R)-2-(3-fluorophenyl)pyrrolidin-1-yl)imidazo[1,2-b]pyridazin-3-yl)pyridin-2-yl)piperazin-1-yl)-2-oxoethyl)amino) isoindoline-1,3-dione] and `O=C1CCC(N2C(=O)c3cccc(NCCOCCC(=O)N4CCN(c5cccc(-c6cnc7ccc(N8CCC[C@@H]8c8cccc(F)c8)nn67)n5)CC4)c3C2=O)C(=O)N1` (stereo partly drawn) [CPD-027, 2-(2,6-Dioxopiperidin-3-yl)-4˜ ((2-(3-(4˜ (6-(6-((R)-2-(3-fluorophenyl)pyrrolidin-1-yl)imidazo[1,2-b]pyridazin-3-yl)pyridin-2-yl)piperazin-1-yl)-3-oxopropoxy)ethyl)amino) isoindoline-1,3-dione] cannot be ordered by percent degradation of TPM3-TRKA protein at 0.01 µM: greater than 80% for the first, greater than 80% for the second.

`O=C1CCC(N2C(=O)c3cccc(NCCOCCOCCC(=O)N4CCN(c5cccc(-c6cnc7ccc(N8CCC[C@@H]8c8cccc(F)c8)nn67)n5)CC4)c3C2=O)C(=O)N1` (stereo partly drawn) [CPD-028, 2-(2,6-Dioxopiperidin-3-yl)-4-((2-(2-(3-(4-(6-(6-((R)-2-(3-fluorophenyl)pyrrolidin-1-yl)imidazo[1,2-b]pyridazin-3-yl)pyridin-2-yl)piperazin-1-yl)-3-oxopropoxy)ethoxy)ethyl)amino) isoindoline-1,3-dione] and `O=C1CCC(N2C(=O)c3cccc(NCCOCCC(=O)N4CCN(c5ccc(C(=O)Nc6n[nH]c7ccc(Cc8cc(F)cc(F)c8)cc67)c(NC6CCOCC6)c5)CC4)c3C2=O)C(=O)N1` (centres unmarked) [CPD-030, N-(5-(3,5-Difluorobenzyl)-1H-indazol-3-yl)-4-(4-(3-(2-((2-(2,6-dioxopiperidin-3-yl)-1,3-dioxoisoindolin-4-yl)amino)ethoxy)propanoyl)piperazin-1-yl)-2-((tetrahydro-2H-pyran-4-yl)amino)benzamide] cannot be ordered by percent degradation of TPM3-TRKA protein at 0.01 µM: greater than 80% for the first, greater than 80% for the second.

First: Cc1ncsc1-c1ccc(CNC(=O)[C@@H]2C[C@@H](O)CN2C(=O)[C@@H](NC(=O)CCCCCCC(=O)N2CCN(c3cccc(-c4cnc5ccc(N6CCC[C@@H]6c6cccc(F)c6)nn45)n3)CC2)C(C)(C)C)cc1 [CPD-029, (25,4R)-1-((S)-2-(8-(4-(6-(6-((R)-2-(3-Fluorophenyl)pyrrolidin-1-yl)imidazo[1,2-b]pyridazin-3-yl)pyridin-2-yl)piperazin-1-yl)-8-oxooctanamido)-3,3-dimethylbutanoyl)-4-hydroxy-N-(4-(4-methylthiazol-5-yl)benzyl)pyrrolidine-2-carboxamide]
Second: O=C1CCC(N2C(=O)c3cccc(NCCOCCOCCOCCOCCC(=O)N4CCN(c5ccc(C(=O)Nc6n[nH]c7ccc(Cc8cc(F)cc(F)c8)cc67)c(NC6CCOCC6)c5)CC4)c3C2=O)C(=O)N1 (centres unmarked) [CPD-031, N-(5-(3,5-Difluorobenzyl)-1H-indazol-3-yl)-4-(4-(1-((2-(2,6-dioxopiperidin-3-yl)-1,3-dioxoisoindolin-4-yl)amino)-3,6,9,12-tetraoxapentadecan-15-oyl)piperazin-1˜yl)-2-((tetrahydro-2H-pyran-4-yl)amino)benzamide]
The percent degradation of TPM3-TRKA protein at 0.01 µM of the first is lower: 50 to 80% for the first, greater than 80% for the second.

Same assay, conditions: KM12 cells, 100 nM, indicated incubation time, Western blot (FIG. 2)

`O=C1CCC(N2C(=O)c3cccc(NCCOCCC(=O)N4CCN(c5cccc(-c6cnc7ccc(N8CCC[C@@H]8c8cccc(F)c8)nn67)n5)CC4)c3C2=O)C(=O)N1` (stereo partly drawn) [CPD-027, 2-(2,6-Dioxopiperidin-3-yl)-4˜ ((2-(3-(4˜ (6-(6-((R)-2-(3-fluorophenyl)pyrrolidin-1-yl)imidazo[1,2-b]pyridazin-3-yl)pyridin-2-yl)piperazin-1-yl)-3-oxopropoxy)ethyl)amino) isoindoline-1,3-dione] was tested, and the TPM3-TRKA protein levels was “rapidly reduced TPM3-TRKA protein levels”.
